This is an account of results in US4657897A, “N^6 -substituted adenosines for treating pain” (Warner-Lambert Company, priority 1985, dated 1987).

Experiment [1] in a line: Mouse Activity and Screen Test (MAST), inhibition of locomotion (LI). The experiment is classed as in vivo, mouse (Swiss-Webster, male). Conditions: one hour data. The protocol:
(§1) Treatments are administered intraperitoneally one hour prior to testing. […] Compounds are dissolved or suspended in 0.2% Methocel. Control animals are injected with Methocel.
Immediately following the screen test, the final phase of testing is initiated by placing each group of three mice in one actophotometer (Life Sciences, 22, 1067-1076, 1978). The actophotometer consists of a cylindrical chamber whose center is occupied by another cylinder which contains the illumination for six photocells located on the perimeter of the chamber. Six light-beam interruptions equal one count. Locomotor activity is recorded by computer at ten minute intervals for 60 minutes.
(§2) The compounds are identified in the Examples.

Experiment [2] is described as follows: Mouse Activity and Screen Test (MAST), screen test failure (ST). The experiment is classed as in vivo, mouse (Swiss-Webster, male). The settings on record: Mus musculus, ip, 1 h, read-out: MAST ST LAD. The protocol: as §1, §2
The subject of experiment [3] is rat heart. Briefly: Coronary blood flow (PCS2A), isolated perfused rat heart. Set-up: species or system rat (male). The settings on record: read-out: effect on heart rate (HR). On the procedure:
Male rats (400-600 gms) are pretreated with Na heparin 2000 units and anesthetized with Na pentobarbital (50 mg/kg) administered intraperitoneally. Once anesthetized, the rat heart is rapidly excised, the ascending aorta fitted to the aortic perfusion cannula, and secured with a ligature. The coronary arteries are perfused initially at a rate of about 15 ml/min for two to three minutes, afterwhich they are perfused at constant pressure of 70 mm Hg and temperature of 37° C. The electrocardiogram (ECG) is recorded using two platinum electrodes positioned at the base and apex of the left ventricle. A second heart is excised, cannulated, and perfused by the same method outlined above. Both hearts are tested in parallel. The standard physiological salt solution (PSS) is a modified Krebs-Hanseleit bicarbonate buffer of the following composition in mM concentration: NaCl, 127; NaHCO3, 25; dextrose, 5.5; Na Pyruvate, 2.0; KCl, 4.7; MgSO4, 1.1; KH 2PO4, 1.2; CaCl2.2H2 O, 2.5; CaNa2 EDTA, 0.05.
A 30-minute stabilization period is observed before starting the test protocol.
The microprocessor control system is a servo mechanism which permits coronary perfusion pressure (CPP) and drug concentration to be maintained constant independent of changes in coronary flow. The level at which CPP and drug concentration are maintained can be changed by commands communicated through the microprocessor keyboard. Dose-response curves are carried out by perfusing concentrated drug solution (DC) at rates proportional to total coronary flow (CFT). Drug concentrations are increased by proportionate increases in the rate of DC infusion over CFT via the microprocessor keyboard. The proportional flow rates for DC:CFT is about 0.0002:1 at the low end and 0.02:1 at the high end of the dose-response curve. Dose-response curves encompassing at least two log doses are carried out by preparing two DCs with a concentration difference of 1:100. Following the first dose range of two log doses, the DC are switched, proportional pumping rate adjusted, and the dose-responsecurve continued for another two log doses. The standard dose-response curve is carried out in one-half log dose increments starting at a subthreshold dose and ending at a dose which produces near maximal response in activity. Standard reference compounds are tested over the range of 10^-9 to 10^-6 M.
Measurements are for heart rate (HR) and coronary flow (CF). Units are: HR, beats/minute (bpm) and CF, milliliters/minute (ml/min). HR is calculated from the ECG strip chart recording and CF is calculated by recording analog outputs from pumps 1 and 2. Outputs from pump #1=CFT and the output from pump #2=CF for heart B (CFB). CF for heart A (CFA) is calculated (CFT -CFB =CFA).

Experiment [4] is described as follows: Antihypertensive evaluation (AHP3), aortic blood pressure and heart rate in conscious rats. The experiment is classed as in vivo, rat. The protocol:
This test procedure is described in the following paragraphs.
The continuous monitoring of pulsatile blood pressure (BP) from unrestrained conscious rats surgically equipped witth polyethylene cannulas was accomplished by means of a computer assisted data capture scheme (CADCS). The basic elements of the methodology are the cannulation procedure and the CADCS.
Rats were anesthetized with Telazol (1:1 tiletamine HCl and zolazepam HCl); 20-40 mg/kg IM and the descending aorta exposed via a midline incision. Cannulas fabricated from polyethylene tubing were inserted into the aorta via an undersized puncture hole below the renal arteries. The puncture hole was made by a 23 G disposable needle with a section of the aorta clamped off above and below the puncture site. The cannulas, consisting of a PE100 (0.86 mm ID) body and a PE50 (0.58 mm ID) tip, were attached to a trocar, inserted through the psoas muscle, and passed subcutaneously along the midline of the back and externalized between the ears. The cannulas were anchored to the psoas muscle and between the scalulae (3-0 green braided suture). The midline incision was closed in two steps (muscle first, skin second) using continuous over-and over sutures (4-0 chronic). Each rat was then given penicillin 30,000 units subcutaneously (Penicillin G Procaine Sterile Suspension).
The rats were fitted with a harness-spring-swivel assembly designed to protect the cannula and to provide the rat relative freedom of movement. The harnesses were fabricated from nylon hook and loop tape cemented to a metal plate to which spring wires (18-8 stainless steel), were attached to brass swivels. Each polyethylene cannula was channeled through a spring and connected through a swivel to a pressure transducer (Model P23Gb; Statham Instruments; Hato Rey, Puerto Rico) and an infusion pump (Sage model 234-7; Orion Research, Cambridge, MA) by means of PE100 tubing. While on test, each rat received a continuous slow infusion of heparinized saline solution (approximately […] or 40 units of heparin per 24 hour period) to prevent clot formation. Additional "flushes" of the cannula with heparinized saline were carried out when the aortic pulse pressure (systolic minus diastolic) was less than 25 mm Hg.
The pulsatile blood pressure and heart rate of each of 32 rats was monitored every minute by means of two in-laboratory microcomputers communicating directly with a data concentrator computer. The data were first stored on the data concentrator disk and then transferred to a magnetic tape for analysis and report generation by the main research computer. The overall scheme involved modulating the primary signal from the pressure transducer, generating the primary data set of the one-minute values for systolic, diastolic, and mean blood pressures and heart rate by the in-lab microcomputer and the storage, analysis, and report generation by the main reserach computer.
The transducers were connected to analog signal conditioning modules. The modules provided a regulated excitation voltage for the transducers, amplification as required to interface the microprocessors and an active low pass filter to compensate for the pressure wave form distortion produced by the flexible, fluid filled, narrow cannula. The distortion was 22-26 Hz and this provided a reliable estimate of both systolic and diastolic blood pressure.
The microcomputers (one for each of two groups of 16 rats) were connected to the input components through the module interface units, an analog-to-digital converter for the pressure wave form signal and the digital inputs for the dose and event marker switches. The microcomputer controlled the sequential acquisition of data from the modular interface units through an internal synchronous time-of-day clock/time base generator. Utilizing the time base generator as a reference, the blood pressure values and the marker switch status for each of the 32 stations were sampled every ten msec. […]

Some results are limits rather than exact numbers.

In the case of `OC[C@H]1O[C@@H](n2cnc3c(NCC(c4ccccc4)c4ccccc4)ncnc32)[C@H](O)[C@@H]1O` [Example 1, N^6-(2,2-Diphenylethyl)adenosine], the “Inhibition of mouse locomotor activity” value in experiment [1] (10 mg/kg intraperitoneal) is 92%. Besides, the “Inhibition of mouse locomotor activity” value in experiment [1] (30 mg/kg intraperitoneal) stood at 93%. The “Inhibition of mouse locomotor activity” value in experiment [1] (100 mg/kg intraperitoneal) is reported as 94%. Besides, the minimal effective dose in experiment [2] was over 100 mg/kg. Besides, in experiment [3], the activation at 0.001 µM turned out to be 1%, the activation at 0.003 µM is 3%, the activation at 0.01 µM is -1% and the activation at 0.1 µM is -13%. In addition, the activation at 1 µM in experiment [3] is -47%. Moreover, in experiment [4] (1 mg/kg), the “change in MAP (decrease)” value amounted to 16% and the “change in heart rate (HR increase)” value is on record as under 20%. In experiment [4] (3 mg/kg), the “change in MAP (decrease)” value is on record as 20% and the “change in heart rate (HR increase)” value is recorded as under 20%. Further, in experiment [4] (10 mg/kg), the “change in MAP (decrease)” value was determined as 20% and the “change in heart rate (HR increase)” value is under 20%. In addition, in experiment [4] (30 mg/kg), the “change in MAP (decrease)” value is given as 35% and the “change in heart rate (HR increase)” value is listed as under 20%.
